What was measured:
[1] = Molar enthalpy of transition or fusion; settings: Crystal; DSC

O=C([O][Sb]([c]1ccccc1)([c]1ccccc1)([c]1ccccc1)[c]1ccccc1)c1ccccc1 [tetraphenylantimony benzoate]
101.33 kPa
Settings	mass density [kg/m3]	molar entropy [J/K/mol]
5 K, Crystal, Small (less than 1 g) adiabatic calorimetry	–	0.567
10 K, Crystal, Small (less than 1 g) adiabatic calorimetry	–	4.1
15 K, Crystal, Small (less than 1 g) adiabatic calorimetry	–	11.1
20 K, Crystal, Small (less than 1 g) adiabatic calorimetry	–	20.79
25 K, Crystal, Small (less than 1 g) adiabatic calorimetry	–	31.83
30 K, Crystal, Small (less than 1 g) adiabatic calorimetry	–	43.78
35 K, Crystal, Small (less than 1 g) adiabatic calorimetry	–	56.29
40 K, Crystal, Small (less than 1 g) adiabatic calorimetry	–	69.07
45 K, Crystal, Small (less than 1 g) adiabatic calorimetry	–	81.95
50 K, Crystal, Small (less than 1 g) adiabatic calorimetry	–	94.78
60 K, Crystal, Small (less than 1 g) adiabatic calorimetry	–	120.2
70 K, Crystal, Small (less than 1 g) adiabatic calorimetry	–	145.3
80 K, Crystal, Small (less than 1 g) adiabatic calorimetry	–	169.9
90 K, Crystal, Small (less than 1 g) adiabatic calorimetry	–	194.1
100 K, Crystal, Small (less than 1 g) adiabatic calorimetry	–	217.6
120 K, Crystal, Small (less than 1 g) adiabatic calorimetry	–	262.3
140 K, Crystal, Small (less than 1 g) adiabatic calorimetry	–	305.1
160 K, Crystal, Small (less than 1 g) adiabatic calorimetry	–	346.3
180 K, Crystal, Small (less than 1 g) adiabatic calorimetry	–	386.3
200 K, Crystal, Small (less than 1 g) adiabatic calorimetry	–	425.4
220 K, Crystal, Small (less than 1 g) adiabatic calorimetry	–	463.9
240 K, Crystal, Small (less than 1 g) adiabatic calorimetry	–	501.9
260 K, Crystal, Small (less than 1 g) adiabatic calorimetry	–	539.8
273.15 K, Crystal, Small (less than 1 g) adiabatic calorimetry	–	564.6
280 K, Crystal, Small (less than 1 g) adiabatic calorimetry	–	577.5
298.15 K, Crystal, Small (less than 1 g) adiabatic calorimetry	–	611.7
298.15 K, Crystal, X-ray diffraction	1438	–
300 K, Crystal, Small (less than 1 g) adiabatic calorimetry	–	615.3
320 K, Crystal, Small (less than 1 g) adiabatic calorimetry	–	653.4
340 K, Crystal, Small (less than 1 g) adiabatic calorimetry	–	691
360 K, Crystal, Small (less than 1 g) adiabatic calorimetry	–	729
380 K, Crystal, Small (less than 1 g) adiabatic calorimetry	–	768
400 K, Crystal, Small (less than 1 g) adiabatic calorimetry	–	807
420 K, Crystal, Small (less than 1 g) adiabatic calorimetry	–	848
437.5 K, Crystal, Small (less than 1 g) adiabatic calorimetry	–	881
437.5 K, Liquid, DSC	–	940
440 K, Liquid, DSC	–	948
460 K, Liquid, DSC	–	989
480 K, Liquid, DSC	–	1030

Settings	Normal melting temperature [°C]
Crystal, DTA	164.4

Settings	Molar enthalpy of transition or fusion [kcal/mol]
[1]	6.31

Source: the NIST ThermoML archive (doi:10.1016/j.jct.2018.11.011)
